# Laboratory results published in patent publication US9248098B2, “Treating or preventing pain using spicamycin derivatives” (DARA BIOSCIENCES, INC., priority 2008, dated 2016).
# Columns and labels:
# [1] = test system: rat models of neuropathic pain; details: Abdi et al. 2000; Kobierski et al. 2003; cited from earlier work
# [2] = test system: patients with end-stage cancer experiencing neuropathic pain; experiment: Phase 2 placebo-controlled study of KRN5500, safety; format: in vivo, human
# Protocol: (§1) A Phase 2, multicenter, placebo-controlled, randomized, parallel group study was carried out to evaluate the safety, efficacy, and dose-response of KRN5500 in patients with end-stage cancer experiencing neuropathic pain. Nineteen (19) patients were enrolled in the study. Thirteen were randomized to receive KRN5500 and 6 were randomized to receive placebo. Due to a randomization error at an investigative site, one patient randomized to receive KRN5500 actually received placebo. Of the 12 patients who received KRN5500, 3 (25%) completed all dosing visits. Two (28.6%) of the patients who received placebo completed all dosing visits. No patients were lost to follow up and no patients died.
# (§2) The median duration of exposure to KRN5500 was 40 days compared to 29 days for placebo. On average, KRN5500 patients took 5.3 doses while placebo patients took 4.4 doses. The highest dose received was 2.2 mg/m^2. Seven (58.3%) of KRN5500 patients were exposed to at least one dose at this level, while 4 (57.1%) of Placebo patients were exposed to at least one dose at this level.
# All patients treated with KRN5500 (100%) had at least one treatment emergent adverse event, compared to 86% (6 of 7 patients) in the Placebo treated group. Events recorded by the KRN5500 patients tended to be more severe (84% moderate or severe in KRN5500 vs. 71% in Placebo). Events were typically gastrointestinal disorders such as nausea or vomiting and were more frequently considered to be related to treatment in the KRN5500 group than in the Placebo group (92% vs. 14%). Three patients (25%) in the KRN5500 group and 1 (14%) patient in the Placebo group experienced serious adverse events (AEs). […] Two patients treated with KRN5500 withdrew from the study due to nausea and vomiting which were thought to be related to study drug. One patient treated with KRN5500 withdrew due to convulsions not thought to be related to study drug. One patient treated with Placebo withdrew from the study due to a stroke not related to study drug.
# [3] = test system: patients with end-stage cancer experiencing neuropathic pain; experiment: Phase 2 placebo-controlled study of KRN5500, efficacy on neuropathic pain; format: in vivo, human; details: for median decrease from baseline in pain intensity, clinic numeric rating scale (NRS) scores: placebo median change zero
# Protocol: as §1
# The treatment groups were similar in demographics, with the majority of patients being Caucasian (73.7%) and approximately 50/50 in distribution by gender. The median age of patients enrolled was 62 years, ranging from 41 to 84 years. The average body surface area (BSA) was 1.8 m^2 ranging from 0.95 to 2.27 m^2. The majority of the patient population had allodynia (84.2%). This and other baseline characteristics of neuropathic pain were consistent between the treatment groups.
# as §2
# Pain intensity, based on clinic numeric rating scale (NRS) scores, was analyzed for both the Intent-to-treat (ITT) and modified efficacy (ME) populations. […] Since more than 80% of patients had allodynia as a baseline characteristic, results from the analysis of the subset of patients with allodynia present at baseline was consistent with the overall analysis. Too few patients presented without allodynia at baseline to adequately draw conclusions in this subset. […] Three (25%) of the KRN5500 treated patients achieved 33% or greater pain decrease and none of the placebo patients achieved this level.
# [4] = of 12 patients who received KRN5500
# [5] = brief pain inventory, no change in placebo
# [6] = neuropathic pain questionnaire, versus placebo
smiles,measurement,setting,value
"CCCCCCCCC/C=C/C=C/C(=O)NCC(=O)N[C@@H]1[C@@H](O)[C@@H](O)[C@@H](Nc2ncnc3[nH]cnc23)O[C@H]1[C@@H](O)CO [KRN5500, 6-[4-deoxy-4-[(2E,4E)-tetradecadienoylglycyl}amino-L-glycero-β-L-mannoheptopyranosyl]amino-9H-purine]",efficacy in rat models of neuropathic pain,[1],effective
same,incidence of nausea and vomiting,[2]; generally considered related to study drug,High incidences of nausea and vomiting
same,deaths,[2]; in vivo,No deaths were observed
same,relation of serious AEs to study drug,[2]; in vivo,None were considered to be related to study drug
same,patients withdrawn due to convulsions not thought to be related to study drug,[2]; [4],One
same,patients withdrawn due to nausea and vomiting thought to be related to study drug,[2]; [4],Two
same,adverse events moderate or severe,[2]; placebo 71%,84%
same,patients with at least one treatment emergent adverse event,[2]; placebo 86% (6 of 7 patients),100%
same,patients experiencing serious adverse events (AEs),"[2]; three patients, placebo 1 (14%)",25%
same,"clinically significant laboratory abnormalities, changes in vital signs, physical examinations, or ECGs",[2]; throughout the study,not observed
same,adverse events considered to be related to treatment,"[2]; typically gastrointestinal disorders such as nausea or vomiting, placebo 14%",92%
same,aggregated physical and mental SF-12 scores,[3]; 1 week post-dose follow up,basically unchanged from baseline
same,dose response at last dose received (Endpoint),[3]; ITT or ME population analysis,no trend for dose response
same,"median decrease from baseline in pain intensity, clinic numeric rating scale (NRS) scores",[3]; Intent-to-treat (ITT) population,22%
same,significance of decrease in pain intensity (clinic NRS),"[3]; Wilcoxon Rank Sum test of the medians, ME analysis, p=0.03",statistically significant decrease
same,dynamic and cold allodynia assessment,"[3]; affected and unaffected areas, versus placebo",larger decrease in pain associated with both touch and cold
same,BPI: aggregate measure of pain's interference in the last 24 hours,[3]; [5],decreases from baseline
same,BPI: patient perception of pain at its least in the past 24 hours,[3]; [5],decreases from baseline
same,patients with a 20% or greater reduction in pain intensity,"[3]; diary endpoint, 5 of KRN5500 treated patients, placebo 1 (14%)",42%
same,"median decrease from baseline in pain intensity, clinic numeric rating scale (NRS) scores",[3]; modified efficacy (ME) population,23.6%
same,"NPQ individual questions: burning pain, electric pain and freezing pain",[3]; [6],decreases from baseline in favor of KRN5500
same,"NPQ questions: sensitivity to touch, shooting pain, numbness, tingling, or squeezing pain",[3]; [6],no different between treatment groups
same,NPQ: increased pain due to touch or to weather changes,[3]; [6],no treatment differences
same,"best pain intensity response (largest decrease in pain) recorded in clinic over all doses, median decrease",[3]; placebo showed no decrease,29.3%
same,median decrease in pain intensity based on diary data,[3]; placebo showed no decrease,16.4%
same,SPQ: brush/touch induced pain scores,[3]; supplemental pain questionnaire,greater decrease in pain scores than the Placebo treated patients
same,SPQ: cold induced pain,"[3]; supplemental pain questionnaire, at endpoint, both groups decreased",no treatment differences
same,patients achieving 33% or greater pain decrease,"[3]; three KRN5500 treated patients, none of the placebo patients",25%
same,Karnofsky Performance Status (KPS),"[3]; throughout the study, baseline median 75",did not change throughout the study
